Columns and labels:
KB Cell = assay: Inhibition of multiplication (growth) of KB cells, in vitro; format: cell-based, human; settings: concentration for 50% growth inhibition vs control; for IC50: Homo sapiens, 72 h, compound added Day 1, cells counted Day 4, read-out: Conc.(ED50)
Protocol: KB cells, carcinomatous cell tumors, were transferred to in vitro floatation incubator systems, and added respectively with compounds of Examples 1 to 33. The results of cultivation added with these compounds were compared with the results of the control which was not added with any compound.
Cell used: KB Cell (Originating from human mouth epidermal cancer) Culture medium: Eagles minimal essential medium (MEM) supplemented with 10% calf serum Cultivation: 37°C carbon dioxide gas incubator (5% CO₂)
Day 0: KB cells were diluted in the culture medium to adjust the KB cell density to 2 x 10⁴/ml. Three ml of the cell suspension was inoculated in each of 60 mm plastic dishes. Two dishes per standard dosage were used. Day 1: Test compound was added to the medium so that the final concentrations were set to 100, 30, 10, 3 and 1 µg/ml. Day 4: Cells were scraped off from the dish using trypsin, and the cell number was countered using a Corter counter.
In generally accordance with the stipulations set forth by the National Cancer Institute (NCI), U.S.A., the concentration of compound necessary for exerting 50% growth inhibition (ED₅₀) compared to the control was determined. A compound was judged as effective when ED₅₀ was less than 4 µg/ml.

P-388 = assay: Prolongation of life span in P-388 implanted mice; format: in vivo, CDF mouse; settings: for cure: cured mice per group of 6; for response vs control in vivo at 3.12 mg/kg: dosage 3.12 mg/kg; for response vs control in vivo at 6.25 mg/kg: dosage 6.25 mg/kg
Protocol: Animal used: CDF mouse (6 mice/group) Tumor: P-388 Number of implanted cells: 10⁶ cells/mouse Implanted site: i.p. Day of administration: Day 1 and Day 5 Dosage: LD₅₀ or 400 mg/kg/day at the maximum

[1] = P388, ip, T/C %, dosage 50 mg/kg, Day 1 and Day 5, P-388 10⁶ cells/mouse i.p., read-out: Ratio of Life Prolongation (%)
[2] = P388, ip, T/C %, dosage 100 mg/kg, Day 1 and Day 5, P-388 10⁶ cells/mouse i.p., read-out: Ratio of Life Prolongation (%)
[3] = P388, ip, T/C %, dosage 200 mg/kg, Day 1 and Day 5, P-388 10⁶ cells/mouse i.p., read-out: Ratio of Life Prolongation (%)
[4] = P388, ip, T/C %, dosage 400 mg/kg, Day 1 and Day 5, P-388 10⁶ cells/mouse i.p., read-out: Ratio of Life Prolongation (%)
[5] = P388, ip, T/C %, dosage 12.5 mg/kg, Day 1 and Day 5, P-388 10⁶ cells/mouse i.p., read-out: Ratio of Life Prolongation (%)
[6] = P388, ip, T/C %, dosage 25 mg/kg, Day 1 and Day 5, P-388 10⁶ cells/mouse i.p., read-out: Ratio of Life Prolongation (%)
[7] = P388, ip, T/C %, Day 1 and Day 5, P-388 10⁶ cells/mouse i.p., read-out: Ratio of Life Prolongation (%)

IC50 (KB Cell) [µg/mL] | Compound | response vs control in vivo at 50 mg/kg (P-388; [1]) [%] | response vs control in vivo at 100 mg/kg (P-388; [2]) [%] | response vs control in vivo at 200 mg/kg (P-388; [3]) [%] | response vs control in vivo at 400 mg/kg (P-388; [4]) [%] | response vs control in vivo at 12.5 mg/kg (P-388; [5]) [%] | response vs control in vivo at 25 mg/kg (P-388; [6]) [%] | further results
< 0.3 | COc1cc(NS(C)(=O)=O)ccc1Nc1c2c(nc3c(C)cccc13)-c1ccccc1C2 [Compound 2] |  | 257 | 99 | 97 |  |  | cure (P-388; dosage 100 mg/kg): 1/6
< 0.3 | COC(=O)Nc1ccc(Nc2c3c(nc4ccccc24)-c2ccccc2C3)c(OC)c1 [Compound 3] |  | 151 | 97 | 0 |  |  | 
< 0.3 | COc1cc(N)ccc1Nc1c2c(nc3ccccc13)-c1ccccc1C2 [Compound 4] | 210 |  |  |  | 134 | 168 | 
< 0.3 | CN(C)c1cc(NS(C)(=O)=O)ccc1Nc1c2c(nc3ccccc13)-c1ccccc1C2 [Compound 6, 6-(4-methanesulfonamide-2-dimethylaminoanilino)-indeno[3,2-b]quinoline] |  | 169 | 247 | 148 |  |  | cure (P-388; dosage 200 mg/kg): 2/6
< 0.3 | COc1cc(NCS(=O)O)ccc1Nc1c2c(nc3ccccc13)-c1ccccc1C2 [Compound 7] | 111 | 108 | 111 |  |  |  | 

The remaining lines, values behind:

Compound | IC50 (KB Cell) [µg/mL] | response vs control in vivo at 50 mg/kg (P-388; [1]) [%] | response vs control in vivo at 100 mg/kg (P-388; [2]) [%] | response vs control in vivo at 200 mg/kg (P-388; [3]) [%] | response vs control in vivo at 400 mg/kg (P-388; [4]) [%] | response vs control in vivo at 12.5 mg/kg (P-388; [5]) [%] | response vs control in vivo at 25 mg/kg (P-388; [6]) [%] | further results
6-(4-methanesulfonamide-anilino)-indeno[3,2-b]quinoline [Compound 5] |  |  |  |  |  |  |  | Conc.(ED50) (KB Cell; compound added Day 1, cells counted Day 4, 4320 min): < 0.3 µg/mL; Ratio of Life Prolongation (%) (P-388; T/C %, dosage 25 mg/kg, Day 1 and Day 5, P-388 10⁶ cells/mouse i.p.): 140%; Ratio of Life Prolongation (%) (P-388; T/C %, dosage 50 mg/kg, Day 1 and Day 5, P-388 10⁶ cells/mouse i.p.): 135%; Ratio of Life Prolongation (%) (P-388; T/C %, dosage 100 mg/kg, Day 1 and Day 5, P-388 10⁶ cells/mouse i.p.): 163%; Ratio of Life Prolongation (%) (P-388; T/C %, dosage 200 mg/kg, Day 1 and Day 5, P-388 10⁶ cells/mouse i.p.): 172%; Ratio of Life Prolongation (%) (P-388; T/C %, dosage 400 mg/kg, Day 1 and Day 5, P-388 10⁶ cells/mouse i.p.): 165%
COc1cc(NS(C)(=O)=O)ccc1Nc1c2c(nc3c(C)cccc13)-c1c(C)cccc1C2 [Compound 1, 6-4-(methanesulfonamide-2-methoxyanilino)-1,10-dimethylindeno[3,2-b]quinoline] | < 0.3 | 210 | 290 | 240 |  |  |  | cure (P-388; dosage 100 mg/kg): 1/6; cure (P-388; dosage 200 mg/kg): 1/6
COc1cc(NCC(=O)O)ccc1Nc1c2c(nc3ccccc13)-c1ccccc1C2 [Compound 8] | < 0.3 |  | 175 | 178 | 155 |  |  | 
COc1cc(NS(C)(=O)=O)ccc1Nc1c2cccc(C)c2nc2c1[nH]c1ccccc12 [Compound 9] | < 0.3 | 305 |  |  |  | 198 | 235 | response vs control in vivo at 1.56 mg/kg (P-388; P388, ip, T/C %, dosage 1.56 mg/kg, Day 1 and Day 5, P-388 10⁶ cells/mouse i.p., read-out: Ratio of Life Prolongation (%)): 131%; response vs control in vivo at 3.12 mg/kg (P-388; [7]): 165%; response vs control in vivo at 6.25 mg/kg (P-388; [7]): 168%; cure (P-388; dosage 25 mg/kg): 1/6; cure (P-388; dosage 50 mg/kg): 4/6
COc1cc(NS(C)(=O)=O)ccc1Nc1c2cccc(C)c2nc2c1[nH]c1cccc(C)c12 [Compound 10, 6-(4-methanesulfonamide-2-methoxyanilino)-1,10-dimethylindolo[3,2-b]quinoline] | < 0.3 | 223 | 260 |  |  | 165 | 203 | response vs control in vivo at 3.12 mg/kg (P-388; [7]): 109%; response vs control in vivo at 6.25 mg/kg (P-388; [7]): 145%; cure (P-388; dosage 100 mg/kg): 1/6
COc1cc(NS(C)(=O)=O)ccc1Nc1c2cccc(C)c2nc2c1[nH]c1cc(C)ccc12 [Compound 11, 6-(4-methanesulfonamide-2-methoxyanilino)-3,10-dimethylindolo[3,2-b]quinoline] | < 0.3 | 315 |  |  |  | 315 | 294 | cure (P-388; dosage 12.5 mg/kg): 1/6; cure (P-388; dosage 25 mg/kg): 2/6; cure (P-388; dosage 50 mg/kg): 1/6
